Where no end group is shown, it is not given here.
Assays:
[1] = tested on: MDA-MB-231 triple-negative breast cancer cells; test: MTS cell viability, combined treatments of PaSK with chemotherapeutic agents
S. aureus [2] = test: Antimicrobial activity by flow cytometry (SYBR Green / propidium iodide); assay type: cell-based, Staphylococcus aureus subsp. aureus CECT 4013; conditions: 25 μg/mL, 8 h at 37° C., 2 replicates
Protocol: The strain used was CECT 4013 of S. aureus subsp. aureus, publicly accessible deposited in the Spanish Type Culture Collection (CECT).
Starting from cells of S. aureus cultured overnight in a liquid medium LB (peptone 1%, yeast extract 0.5% and NaCl 1%) at 37° C. with stirring, aliquots were obtained in a new liquid medium and allowed to grow until reaching an optical density at 600 nm (OD600) of 0.5, optimum for detection in the flow cytometer. Aliquots were prepared with a concentration of 5×10^6 cfu/100 μL of S. aureus to which were added 10, 15, 20 and 25 μg/mL of PaSK, 25 μg/mL of TcDef3-pep and H2O (negative control), solvent used to dilute the peptides. The mixtures were incubated at 37° C. for 8 h and marked with the fluorochromes SYBR Green (Invitrogen) (25 μL of a SYBR Green 25× solution in H2O) that stains all the cells and propidium iodide (Sigma) (10 μL of propidium iodide 1 mg/mL) that stains dead cells. Finally, the cell death caused by the peptides was analysed by flow cytometry with the equipment BD Facs Verse (Becton Dickinson), from the cell culture and flow cytometry section of the Central Services for Research Support of the University of Valencia. The experiments were performed in duplicate.
The flow cytometer forces cells to pass one by one through a needle, creating a thin line of liquid and detecting how the laser beam (argon emission laser at 488 nm, in the equipment used) interacts with the cells, depending on how the incident light is deviated and the fluorescence emitted by the excited fluorochromes. The results are presented as graphs obtained with the analysis program BD Facs suite v1.0.5.3841 (Becton Dickinson). […] Then, a second graph is obtained with the parameters SSC and FITC (fluorescence parameter indicating the cells containing SYBR Green), to differentiate the cells from the other particles that may be present in the sample. Lastly, a third graph is obtained with the fluorescence parameters FITC and PerCPCy5.5 (indicating the cells stained with propidium iodide) to differentiate the cells that have been stained only by SYBR Green from those stained with propidium iodide, which will be those that have died.
The antimicrobial activity of the peptide PaSK was determined by flow cytometry. […] Therefore, the use of these two fluorochromes provides a method for determining viable cells, quantifying the loss of cell viability from the increase in propidium iodide inside the dead cells.
After incubating the cells of strain CECT 4013 of S. aureus with 25 μg/mL of the peptides TcDef3-pep and PaSK, the percentage of dead cells was determined. […] FIGS. 1A-1D show the graphs corresponding to the fluorescence obtained in the windows of the flow cytometer.

S. aureus [3] = test: Scanning electron microscopy of S. aureus cells treated with peptides; assay type: cell-based, Staphylococcus aureus subsp. aureus CECT 4013; conditions: 25 μg/mL, 1 h
Protocol: The cells were prepared in the same way as for the flow cytometry technique and the same aliquots and treatments were performed. The samples were incubated at 37° C. for 1 h. The bacteria were fixed with Karnosky (2.5% paraformaldehyde and 0.5 glutaraldehyde) for 2 h at 4° C. After washing (centrifuging and eliminating the supernatant) they were fixed with 2% osmium tetraoxide for another 2 h, washed again and filtered with a 0.2 μm filter. The cells were then dehydrated in graded ethanol series (30°, 50°, 70°, 90°, 100°) for 10 min in each gradation. To carry out the critical point drying, the ethanol was replaced with liquid CO2, the temperature was increased to accelerate evaporation and the pressure was lowered slowly to conserve the exact shape of the bacteria. Finally, shading with gold palladium was performed for 2 min observing the results in the equipment FEG-SEM HITACHI S4800 at 10 Kv.
Scanning electron microscopy provides high-resolution images used to view the damage caused by the peptides to the bacterial membrane. The cells of S. aureus CECT 4013 were treated with the peptides hBD-3, TcDef3-pep and PaSK at a concentration of 25 μg/mL, for 1 h, and analysed using scanning electron microscopy (FIG. 4). In cells without treatment the circular and uniform form typical of S. aureus was observed, with the intact membrane, while in treated cells various types of morphological alterations can be seen. […] With this treatment small circular structures are observed, smaller than the cells of S. aureus.

S. aureus [4] = test: Transmission electron microscopy of S. aureus cells treated with peptides; assay type: cell-based, Staphylococcus aureus subsp. aureus CECT 4013; conditions: 25 μg/mL, 1 h
Protocol: The samples were prepared in the same way as for scanning electron microscopy, except for the series of graded dehydration with ethanol, in which only the 90° grade was reached. Then the samples were included in resin in 4 steps: ethanol 96°—resin LR-White 2:1 (20 h), ethanol 100°—resin 2:1 (20 h), ethanol 100°—resin 1:2 (20 h) and 100% resin (24 h at 60° C.). After the samples were included in the resin the block was prepared for ultrathin cuts of 60 nm in the equipment Leica UC6 Ultracut Microtome.
Transmission electron microscopy provides high-resolution images which were used to view the ultrastructural damage caused by the peptides inside the bacteria. The cells of S. aureus CECT 4013 were treated with the peptides hBD-3, TcDef3-pep and PaSK at a concentration of 25 μg/mL, for 1 h, and analysed using transmission electron microscopy (FIG. 6). In cells without treatment, an intact cytoplasm membrane (3) and peptidoglycane wall (2) were observed, typical of a Gram+ bacteria as S. aureus, as well as a division septum (1) without malformations, while in treated cells different types of alterations were observed. […] Small size circular structures (9) are observed. These structures show a different electrodensity from cells and lack a cytoplasm membrane and peptidoglycane wall. The biofilm formed by the cells treated with peptides was also observed in the images obtained by transmission electron microscopy (FIG. 7) and it was not observed in the cells treated with human defensin hBD-3 (FIG. 6).

S. aureus [5] = conditions: 10 μg/mL; Contreras et al., 2015; cited from earlier work
[6] = chemotherapeutic agent alone, 72 h, 3 replicates

Compound | EC50 ([1]; Homo sapiens, MDA-MB-231, 72 h) [µM] | EC50 [1, 6] [µM] | percentage of dead cells (cytotoxicity) (S. aureus [2]) | biofilm formation, scanning electron microscopy (S. aureus [3]) | morphological alterations, scanning electron microscopy (S. aureus [3]) | ultrastructural damage, transmission electron microscopy (S. aureus [4]) | further results
O=c1[nH]cc(F)c(=O)[nH]1 [5-fluorouracyl] |  | 25.3 ± 4.33 |  |  |  |  | 
N.N.[Cl][Pt][Cl] [cisplatin] |  | 168 ± 53.9 |  |  |  |  | 
TcDef3-pep: 29 amino acid peptide fragment of Tribolium castaneum defensin 3, SEQ ID NO: 2, disclosed in Contreras et al., 2015 (VNHAACAAHCLLKRKRGGYCNKRRICVCR) |  |  | ~55% | biofilm produced | bulges are observed in the bacterial membrane | malformations and bulges in the bacterial membrane | mortality percentage (S. aureus [5]): 9.2%
hBD-3: human defensin hBD-3 (PeptaNova), positive control (GIINTLQKYYCRVRGGRCAVLSCLPKEEQIGKCSTRGRKCCRRKK; ends and bridges not checked; cysteine pairing not given here; UniProt P81534 23-67, looked up) |  |  | around 70% | did not form a biofilm | structural damage and lysis of the membrane | malformations (4) and lysis of the membrane | 

Now from value to compound, other results behind:

EC50 ([1]; Homo sapiens, MDA-MB-231, 72 h) [µM] | Compound | EC50 [1, 6] [µM] | percentage of dead cells (cytotoxicity) (S. aureus [2]) | biofilm formation, scanning electron microscopy (S. aureus [3]) | morphological alterations, scanning electron microscopy (S. aureus [3]) | ultrastructural damage, transmission electron microscopy (S. aureus [4]) | further results
0.008 ± 0.005 | CC(=O)O[C@H]1C(=O)[C@@]2(C)[C@H]([C@H](OC(=O)c3ccccc3)[C@]3(O)C[C@H](OC(=O)[C@H](O)[C@@H](NC(=O)c4ccccc4)c4ccccc4)C(C)=C1C3(C)C)[C@]1(OC(C)=O)CO[C@@H]1C[C@@H]2O [paclitaxel] |  |  |  |  |  | 
0.407 ± 0.033 | COc1cccc2c1C(=O)c1c(O)c3c(c(O)c1C2=O)C[C@@](O)(C(=O)CO)C[C@@H]3O[C@H]1C[C@H](N)[C@H](O)[C@H](C)O1 [doxorubicin] |  |  |  |  |  | 

Source: patent publication US11365227B2, “Peptide and pharmaceutical compositions of same for use as an antimicrobial and in cancer treatment” (UNIVERSITAT DE VALÈNCIA, priority 2017, dated 2022)
